Earlier results in US8309103B2, “Association of fluconazole-tinidazole for the treatment of vaginal infections, its composition, preparation process and usage” (Alparis, S.A. DE C.V., priority 2004, dated 2012).
Like-named read-outs stand apart in the source and are kept apart here.

Tests used:
[1] = tested on: Bacterial Vaginosis (Gardnerella vaginallis)
vaginal candidiasis = conditions: one dose of 150 mg; 1,017 patients with vaginal candidiasis
[2] = in vivo, po
Trichomonas vaginalis = conditions: 2 grams in an only dose, sexual partner also involved

In the case of CCS(=O)(=O)CCn1c([N+](=O)[O-])cnc1C [tinidazole], the Curative rate ([1]; an only dose of 2 g tinidazole) is given as 92% and the Curative rate ([1]; same amount (2 g) in a two-day scheme, other researchers) is given as 51%.
For Cc1ncc([N+](=O)[O-])n1CC(C)O (centres unmarked) [secnidazole], the “Share of the dose taken excreted (essentially urinary)” value (in 120 hours) is given as 50%, the Average plasmatic life (oral, one 2 g dose) is given as “about 25 hours” and the “Time at which the highest seric rates are obtained” value (oral, one 2 g dose) is given as “third”.
For OC(Cn1cncn1)(Cn1cncn1)c1ccc(F)cc1F [fluconazole], the “Patients in whom well received and effective” value (vaginal candidiasis) is listed as 91% and the “Relationship between plasma and the vaginal tissue” value [2] is listed as 0.94-1.1.
In the case of Cc1ncc([N+](=O)[O-])n1CCO [metronidazole], the Efficacy (Trichomonas vaginalis) is given as “up to 85%”.
